Measurements from patent publication US5338869A, “Hydroxyphenylpropionic ester having novel crystal structure” (Sumitomo Chemical Company, Limited, priority 1992, dated 1994).

Legend:
Format in all cases: physicochemical
[1] = Bulk specific gravity (packed state)
[2] = Angle of repose of crystals
[3] = Angle of spatula of crystals
[4] = Solubility in organic solvents at 20° C.
[5] = Hygroscopicity: moisture content after exposure to 100% relative humidity (Karl Fischer method); settings: for Hygroscopicity (Water content in % by weight): room temperature, relative humidity 100%
Excerpt: Consequently, the crystals can be used conveniently and advantageously with no additional treatment, such as re-drying and moisture-proof packing, even in such uses as the production of polyurethane, which is susceptible to the influence of moisture.

Compound	Bulk Specific Gravity [1]	Angle of Repose [2]	Angle of Spatula [3]	Solubility at 20° C. ([4]; Cyclohexane)	Solubility at 20° C. ([4]; Methanol)	Solubility at 20° C. ([4]; Toluene)	Hygroscopicity (Water content in % by weight) ([5]; exposure period 0 Days)	Hygroscopicity (Water content in % by weight) ([5]; exposure period 1 Day)	Hygroscopicity (Water content in % by weight) ([5]; exposure period 50 Days)	Hygroscopicity (Water content in % by weight) ([5]; exposure period 100 Days)	solubility in organic solvents (in words) ([4]; compared with the δ-crystals and the αβ-crystals)	hygroscopicity (in words) ([5]; compared with the prior αβ- and δ-crystals)
Cc1cc(CCC(=O)OCC(C)(C)C2OCC3(CO2)COC(C(C)(C)COC(=O)CCc2cc(C)c(O)c(C(C)(C)C)c2)OC3)cc(C(C)(C)C)c1O (stereo not shown) [Comparative Example 1, 3,9-bis[2-{3-(3-t-butyl-4-hydroxy-5-methylphenyl)propionyloxy}-1,1-dimethylethyl]-2,4,8,10-tetraoxaspiro[5.5]undecane, reference compound]	0.43	50 °	65 °	–	–	–	–	–	–	–	–	–
Cc1cc(CCC(=O)OCC(C)(C)C2OCC3(CO2)COC(C(C)(C)COC(=O)CCc2cc(C)c(O)c(C(C)(C)C)c2)OC3)cc(C(C)(C)C)c1O (stereo not shown) [Comparative Example 2, 3,9-bis[2-{3-(3-t-butyl-4-hydroxy-5-methylphenyl)propionyloxy}-1,1-dimethylethyl]-2,4,8,10-tetraoxaspiro[5.5]undecane, reference compound]	0.40	53 °	74 °	–	–	–	–	–	–	–	–	–
Cc1cc(CCC(=O)OCC(C)(C)C2OCC3(CO2)COC(C(C)(C)COC(=O)CCc2cc(C)c(O)c(C(C)(C)C)c2)OC3)cc(C(C)(C)C)c1O (stereo not shown) [Example 1, 3,9-bis[2-{3-(3-t-butyl-4-hydroxy-5-methylphenyl)propionyloxy}-1,1-dimethylethyl]-2,4,8,10-tetraoxaspiro[5,5]undecane]	0.59	45 °	57 °	–	–	–	–	–	–	–	–	–
Cc1cc(CCC(=O)OCC(C)(C)C2OCC3(CO2)COC(C(C)(C)COC(=O)CCc2cc(C)c(O)c(C(C)(C)C)c2)OC3)cc(C(C)(C)C)c1O (stereo not shown) [Example 2, 3,9-bis[2-{3-(3-t-butyl-4-hydroxy-5-methylphenyl)propionyloxy}-1,1-dimethylethyl]-2,4,8,10-tetraoxaspiro[5.5]undecane]	0.60	45 °	58 °	–	–	–	–	–	–	–	–	–

Second part, led by results:

Bulk Specific Gravity [1]	Angle of Repose [2]	Angle of Spatula [3]	Solubility at 20° C. ([4]; Cyclohexane)	Solubility at 20° C. ([4]; Methanol)	Solubility at 20° C. ([4]; Toluene)	Hygroscopicity (Water content in % by weight) ([5]; exposure period 0 Days)	Hygroscopicity (Water content in % by weight) ([5]; exposure period 1 Day)	Hygroscopicity (Water content in % by weight) ([5]; exposure period 50 Days)	Hygroscopicity (Water content in % by weight) ([5]; exposure period 100 Days)	Compound	solubility in organic solvents (in words) ([4]; compared with the δ-crystals and the αβ-crystals)	hygroscopicity (in words) ([5]; compared with the prior αβ- and δ-crystals)
0.66	47 °	58 °	–	–	–	–	–	–	–	Cc1cc(CCC(=O)OCC(C)(C)C2OCC3(CO2)COC(C(C)(C)COC(=O)CCc2cc(C)c(O)c(C(C)(C)C)c2)OC3)cc(C(C)(C)C)c1O (stereo not shown) [Example 3, 3,9-bis[2-{3-(3-t-butyl-4-hydroxy-5-methylphenyl)propionyloxy}-1,1-dimethylethyl]-2,4,8,10-tetraoxaspiro[5.5]undecane]	–	–
–	–	–	0.06 g/100 g solvent	9 g/100 g solvent	15 g/100 g solvent	0.10 % by weight	0.47 % by weight	0.50 % by weight	0.45 % by weight	Cc1cc(CCC(=O)OCC(C)(C)C2OCC3(CO2)COC(C(C)(C)COC(=O)CCc2cc(C)c(O)c(C(C)(C)C)c2)OC3)cc(C(C)(C)C)c1O (stereo not shown) [δ-Crystal, 3,9-bis[2-{3-(3-t-butyl-4-hydroxy-5-methylphenyl)propionyloxy}-1,1-dimethylethyl]-2,4,8,10-tetraoxaspiro[5.5]undecane, reference compound]	–	–
–	–	–	0.02 g/100 g solvent	4 g/100 g solvent	9 g/100 g solvent	0.04 % by weight	0.06 % by weight	0.05 % by weight	0.05 % by weight	Cc1cc(CCC(=O)OCC(C)(C)C2OCC3(CO2)COC(C(C)(C)COC(=O)CCc2cc(C)c(O)c(C(C)(C)C)c2)OC3)cc(C(C)(C)C)c1O (stereo not shown) [ε-Crystal, 3,9-bis[2-{3-(3-t-butyl-4-hydroxy-5-methylphenyl)propionyloxy}-1,1-dimethylethyl]-2,4,8,10-tetraoxaspiro[5.5]undecane]	lower solubility in organic solvents than the δ-crystals and the αβ-crystals	smaller in hygroscopicity than the prior αβ- and δ-crystals
